In patent US20050244387A1, “Entomopathogenic nematodes and methods of their use” (priority 2004, published 2005):

Columns and labels:
Type in all cases: in vivo
[1] = tested on: second instar Popillia japonica grub populations; test: Microplot (cylinder) field trials, Trials 1-4; details: Ohio
Experimental: Microplot trials consisted of field plots in which PVC cylinders, 20 cm inside diameter, were inserted to a depth of about 7 cm. Four microplot trials (Trials 14) were conducted on second instar P. japonica grubs.
P. japonica adults were caged in the PVC cylinders to obtain grub populations following the methods described by Klein et al. (2000). Adult beetles were lured to Trece Catch Can traps (Trece Inc., Adair, Okla.) using a feeding lure containing PEG (phenol ethyl propionate, eugenol, and geraniol) and collected. Twice, at 1-week intervals, 30 adults consisting of approximately 50% females (measured volumetrically) were placed in each cylinder and covered with a nylon 20 mesh screen to induce egg laying within the cylinder area. The ovipositing beetles were fed fresh apple slices dusted with Brewer's yeast twice a week. Fourteen days after the initial caging, the nylon screens were removed. The developing grub population was monitored until the larvae reached the second instar, when all curative treatments were applied.
Trials 1, 2, and 4 were located at the Ohio Agricultural Research and Development Center, Wooster, Ohio whereas trial 3 was located at the TrueGreen Technical Center in Delaware, Ohio. Trials 1, 2, and 4 were set up on 1.5-m by 0.9-m plots, separated by 0.9 m alleyways, arranged in a complete randomized block design with four replications/treatment. For these trials, turf consisted of 70% Kentucky bluegrass and 30% dicot and monocot weed species, with level topography and no thatch was observed. Soil was a silt loam, with 2.8% OM, pH 6.0, 11.4 CEC. Trial 3 was conducted on Kentucky bluegrass lawn using 2.44 by 2.44 m plots arranged in a completely randomized block design with 5 replications/treatment. Soil was also a silt loam. Supplemental irrigation was applied prior to treatments to optimize beetle egg hatch and maintain actively growing turfgrass at both locations.
The nematodes were applied in 100 ml of water at 2.5×10^9 IJs/ha as a curative treatment to each cylinder except for trial 3, in which they were applied at 5.0×10^9 IJs/ha in 7.6 liters of water per plot with a hand held sprinkling can. Chemical insecticides were included for comparison in three of the trials. In trial 1, halofenozide was applied at 1.61 kg active ingredient (a.i.)/ha on Jul. 13, 2000 as a preventive treatment prior to P. japonica egg laying with a CO2 sprayer and Teejet 8015 nozzles at 2.81 kg/cm^2 (40 psi) delivering 1630 liters/ha. In trial 2, imidacloprid (Merit 75 WP) was applied at 0.33 kg a.i./ha on July 14 and trichlorfon granules (Dylox 6.2G) at 9.0 kg a.i./ha with a shaker on September 14. In trial 3, trichlorofon was applied as in trial 2. All plots received post-application irrigation (see Table 2).
(§1) Efficacy data from all field trials were obtained from six, 18×18×7 cm deep samples removed from the middle of each plot. Soil from each square was lifted with a spade and placed in a plastic dishpan and the number of live grubs counted by hand sifting the soil and turf.
(§2) Data on the total numbers of surviving grubs from each plot were subjected to the analysis of variance following the log10 […] transformation using Statsoft (1999) for each trial and means were separated by Tukey's mean separation test at P=0.05. In cylinder studies, the number of surviving grubs from all cylinders were pooled by plot. […]. For predictability analysis, all data on the mean percentage control of all white grubs were pooled by treatment and subjected to the analysis of variance using Statsoft (1999) following arcsine transformation. Only trichlorfon was included in these analyses as it is applied as a curative treatment just like the nematodes.

[2] = tested on: Cyclocephala borealis grubs; test: Large field plot trial 5, golf course fairway; details: Trial 5, Mansfield, Ohio, autumn 2001; nematodes 2.5 × 10^9 IJ/ha, imidacloprid 0.33 kg, trichlorfon 9.0 kg; applied September 11, data October 9
Experimental: (§3) Four field plot trials (Trials 5-8) were conducted on natural populations of P. japonica and C. borealis, or both species if they occurred together. Trial 5 was conducted on a naturally occurring mixed population of P. japonica and C. borealis grubs on a fairway at Wooldridge Woods Golf Course in Mansfield, Ohio in autumn 2001. Plots measuring 3-m by 3-m and separated by 0.9-m alleyways were arranged in a complete randomized block design with five replications/treatment. All treatments including imidacloprid (Merit 75WP) and trichlorfon (Dylox 6.2G) were applied on the morning of September 11 as curative treatments. Liquid applications were made with a sprinkling can at a volume of 8 liters/plot. Nematodes were applied at 2.5×10^9 IJ/ha. The trichlorfon granules were applied using a Gandy Drop Spreader (Gandy Company, Owatonna, Minn.). Grub population consisted of 30% second and 70% third instar P. japonica, and 100% third instar C. borealis. Turf consisted of 70% Kentucky bluegrass and 30% annual bluegrass, topography level, height 2.5 cm, and had no thatch.
as §1, §2

Popillia japonica grubs = test: Large field plot trial 5, golf course fairway; details: Trial 5, Mansfield, Ohio, autumn 2001, nematodes 2.5 × 10^9 IJ/ha, imidacloprid 0.33 kg, trichlorfon 9.0 kg, applied September 11, data October 9
Experimental: as §3, §1, §2

[3] = tested on: mixed populations of third instar Popillia japonica and Cyclocephala borealis grubs; test: Large field plot trials 6 and 7, Kentucky bluegrass lawn; details: Ohio, autumn 2001, nematodes 2.5 × 10^9 IJs/ha, applied September 14, data October 9
Experimental: Trials 6 and 7 were conducted on stands of Kentucky bluegrass naturally infested with mixed populations of mostly third instar P. japonica and C. borealis in autumn 2001. The 1.2 by 1.2-m plots were located at the TrueGreen Technical Center in Delaware, Ohio. The nematodes were applied at 2.5×10^9 IJs/ha in trial 6 and at 5.0×10^9 IJ/ha in trial 7 with a CO2 backpack sprayer with a 10 cm boom fitted with three 8005 LP flat fan nozzles at a volume of 813 liters/ha. Plots were arranged in a randomized complete block design with 5 replications/treatment for both trials.
as §1, §2

[4] = tested on: white grubs, Popillia japonica and Cyclocephala borealis; test: Pooled analysis of field trials (irrigation plus rainfall, predictability); details: nematodes at 2.5×10^9 IJs/ha, trichlorfon curatively at standard rate; mean ± S.E.
Source text: as §2

[5] = Trial 1, 2000 Wooster, nematodes 2.5 × 10^9 IJs/ha applied Sept 13, halofenozide 1.61 kg a.i./ha applied July 13, observed Oct 5
[6] = Trial 2, 2001 Wooster, nematodes 2.5 × 10^9 IJs/ha Sept 12, imidacloprid 0.34 kg July 14, trichlorfon 9.0 kg Sept 12, observed Oct 10
[7] = Trial 3, 2001 Columbus, nematodes 5.0 × 10^9 IJs/ha, trichlorfon 9.0 kg, applied Sept 14, observed Oct 9
[8] = Trial 6, Columbus, trichlorfon 9.0 kg/ha
[9] = Trial 7, Columbus, trichlorfon standard rate 9.0 kg

SMILES	% Control [1, 5] [%]	Mean grubs/plot [1, 5] [b grubs/plot]	C. borealis % control [2] [%]	C. borealis Mean grubs/plot [2]	P. japonica % Control (Popillia japonica grubs)	P. japonica Mean grubs/plot (Popillia japonica grubs)	P. japonica % Control (Popillia japonica grubs; listed as IMIDACLOPRID (MERIT 75 WP)) [%]	% Control [1, 6] [%]	Mean grubs/plot [1, 6]	% Control [1, 7] [%]	Mean grubs/plot [1, 7] [ab grubs/plot]	% Control [3, 8] [%]	Mean grubs/plot [3, 8] [a grubs/plot]	% Control [3, 9] [%]	Mean grubs/plot [3, 9] [b grubs/plot]	overall percent white grub control, pooled data across all trials [4] [%]
CC(C)(C)N(NC(=O)c1ccc(Cl)cc1)C(=O)c1ccccc1 [Halofenozide]	98	0.7	–	–	–	–	–	–	–	–	–	–	–	–	–	–
O=[N+]([O-])NC1=NCCN1Cc1ccc(Cl)nc1 [Imidacloprid]	–	–	47	3.8 ab grubs/plot	no effect	17.8 a grubs/plot	0	98	0.3 d grubs/plot	–	–	–	–	–	–	–
COP(=O)(OC)C(O)C(Cl)(Cl)Cl (stereo not shown) [Trichlorfon]	–	–	47	3.8 b grubs/plot	57%	7.6 c grubs/plot	–	92	1.3 cd grubs/plot	29	6.4	0	11.7	77	4.0	50.33±13.5
